Reference: patent US9615577B2, “Herbicidally active cyclic dione compounds, or derivatives therefor, substituted by a phenyl which has an alkynyl-containing substituent” (Syngenta Limited, priority 2012, dated 2017)

What was measured:
Assay type in all cases: in vivo
[1] = test system: Brassica napus (BRSNN, rape); test: Test 1B glasshouse assay for herbicidal activity, pre-emergence; settings: 480 h, 20 DAA, read-out: percentage phytotoxicity BRSNN
Protocol: (§1) Seeds of a variety of monocotyledonous and dicotyledonous test plants are sown in standard soil in pots. The plants are cultivated for one day (for pre-emergence) or for about 12 days (range=10-13 days) (for post-emergence) under controlled conditions in a glasshouse (warm climate species at 24/18° C., cool climate species at 20/16° C., both at day/night; 16 hours light; 65% humidity).
(§2) An “instant formulation”, known as the “IF50”, containing 50 g/liter (i.e. 5% w/v) of the “technical” (i.e. unformulated) active ingredient is prepared by dissolving the active ingredient in a mixture of organic solvents and emulsifier, details of which are provided in the Table below. This IF50 is then mixed with a small, variable amount of acetone to aid dissolution, before addition of a 0.2% v/v aqueous solution of the adjuvant X-77 (which is a mixture of alkyl aryl polyoxyethylene glycols and free fatty acids in isopropanol, CAS Registry number 11097-66-8), as the aqueous diluent, to form an aqueous spray solution which contains a predetermined concentration of the active ingredient (which varies depending on the application rate of the active ingredient to the plants) and 0.2% v/v of the adjuvant X-77. This aqueous spray solution is then sprayed onto the plants, after one day's cultivation (for pre-emergence) or after about 12 days' cultivation (for post-emergence).
(§3) The test plants are then grown on, in a glasshouse (greenhouse) under controlled conditions (at either 24/18° C. or 20/16° C. (day/night) as mentioned above; 16 hours light; 65% humidity) and are watered twice daily. Either 15 days after application of the herbicide (15 DAA) (for post-emergence), or 20 days after application of the herbicide (20 DAA) (for pre-emergence), the test plants are evaluated visually, and an assessed percentage phytotoxicity score is given for each herbicidal application on each plant species (where 100%=total damage to plant; 0%=no damage to plant).
(§4) Cool climate crop plants: Triticum aestivum (TRZAW, winter wheat), Brassica napus (BRSNN, rape, also called oilseed rape or rapeseed), Beta vulgaris (BEAVA, sugar beet).

[2] = test system: Triticum aestivum (TRZAW, winter wheat); test: as above; settings: 480 h, 20 DAA, read-out: percentage phytotoxicity TRZAW
Protocol: as §1, §2, §3, §4

[3] = test system: Beta vulgaris (BEAVA, sugar beet); test: as above; settings: 480 h, 20 DAA, read-out: percentage phytotoxicity BEAVA
Protocol: as §1, §2, §3, §4

[4] = test system: Alopecurus myosuroides (ALOMY); test: Test 1A glasshouse assay for herbicidal activity, post-emergence; settings: 312 h, evaluated after 13 days, read-out: percentage phytotoxicity ALOMY
Procedure, shortened: (§5)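 Visual % phytotoxicity (0 = no damage, 100 = total damage) scored 13 d after spraying. Pots sown in standard soil; spray applied 1 d post-sowing for pre-emergence, 8 d for post-emergence. Vehicle acetone/water 50:50 + 0.5% Tween 20; glasshouse 24/16 °C, 14 h light, 65% RH, watered twice daily.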

[5] = test system: Amaranthus retroflexus (AMARE); test: as above; settings: 312 h, evaluated after 13 days, read-out: percentage phytotoxicity AMARE
Procedure, shortened: as §5

[6] = test system: Echinochloa crus-galli (ECHCG); test: as above; settings: 312 h, evaluated after 13 days, read-out: percentage phytotoxicity ECHCG
Procedure, shortened: as §5

Setaria faberi (SETFA) [7] = test: as above; settings: 312 h, evaluated after 13 days, read-out: percentage phytotoxicity SETFA
Procedure, shortened: as §5

[8] = test system: Digitaria sanguinalis (DIGSA); test: Test 1B glasshouse assay for herbicidal activity, post-emergence; settings: 360 h; for pest or weed control at 30 g/ha: 30 g/ha application rate; for pest or weed control at 125 g/ha: 125 g/ha application rate
Protocol: as §1, §2, §3
(§6) Warm climate (“warm season”) grassy monocotyledonous weeds: Setaria faberi (SETFA), SORVU (Sorghum bicolor (L.) Moench ssp. Bicolor, or Sorghum vulgare Pers.), Digitaria sanguinalis (DIGSA), Echinochloa crus-galli (ECHCG), and Brachiaria plantaginea (BRAPL).

Setaria faberi (SETFA) [9] = test: as above; settings: 360 h; for pest or weed control at 30 g/ha: 30 g/ha application rate; for pest or weed control at 125 g/ha: 125 g/ha application rate
Protocol: as §1, §2, §3, §6

[10] = test system: Glycine max (GLXMA, soybean); test: as above; settings: 360 h; for plant injury at 30 g/ha: 30 g/ha application rate; for plant injury at 125 g/ha: 125 g/ha application rate
Protocol: as §1, §2, §3
(§7) Warm climate crop plants: Glycine max (GLXMA, soybean).

[11] = test system: Alopecurus myosuroides (ALOMY); test: Test 1B glasshouse assay for herbicidal activity, pre-emergence; settings: 480 h, 20 DAA, read-out: percentage phytotoxicity ALOMY
Protocol: as §1, §2, §3
(§8) Cool climate (“cool season”) grassy monocotyledonous weeds: Alopecurus myosuroides (ALOMY), Avena fatua (AVEFA), Lolium perenne (LOLPE).

Avena fatua (AVEFA) = test: as above; settings: 480 h, 20 DAA, read-out: percentage phytotoxicity AVEFA
Protocol: as §1, §2, §3, §8

Lolium perenne (LOLPE) = test: as above; settings: 480 h, 20 DAA, read-out: percentage phytotoxicity LOLPE
Protocol: as §1, §2, §3, §8

[12] = test system: Glycine max (GLXMA, soybean); test: as above; settings: 480 h, 20 DAA, read-out: percentage phytotoxicity GLXMA
Protocol: as §1, §2, §3, §7

[13] = test system: Brassica napus (BRSNN, rape); test: Test 1B glasshouse assay for herbicidal activity, post-emergence; settings: 360 h; for plant injury at 30 g/ha: 30 g/ha application rate; for plant injury at 125 g/ha: 125 g/ha application rate
Protocol: as §1, §2, §3, §4

[14] = test system: Triticum aestivum (TRZAW, winter wheat); test: as above; settings: 360 h; for plant injury at 30 g/ha: 30 g/ha application rate; for plant injury at 125 g/ha: 125 g/ha application rate
Protocol: as §1, §2, §3, §4

[15] = test system: Beta vulgaris (BEAVA, sugar beet); test: as above; settings: 360 h; for plant injury at 30 g/ha: 30 g/ha application rate; for plant injury at 125 g/ha: 125 g/ha application rate
Protocol: as §1, §2, §3, §4

SMILES	pest or weed control at 250 g/ha [4]	pest or weed control at 250 g/ha [5]	pest or weed control at 250 g/ha [6]	pest or weed control at 250 g/ha (Setaria faberi (SETFA) [7])	plant injury at 125 g/ha [1]	plant injury at 125 g/ha [2]	plant injury at 125 g/ha [3]	pest or weed control at 30 g/ha [8]	pest or weed control at 125 g/ha [8]	pest or weed control at 30 g/ha (Setaria faberi (SETFA) [9])	pest or weed control at 125 g/ha (Setaria faberi (SETFA) [9])	plant injury at 30 g/ha [10]	plant injury at 125 g/ha [10]	pest or weed control at 125 g/ha [11]	pest or weed control at 125 g/ha (Avena fatua (AVEFA))	pest or weed control at 125 g/ha (Lolium perenne (LOLPE))	plant injury at 125 g/ha [12]	plant injury at 30 g/ha [13]	plant injury at 125 g/ha [13]	plant injury at 30 g/ha [14]	also measured
CC#Cc1cc(Cl)c(C2C(=O)C3CCC(C)(C2=O)C3(C)C)c(OC)c1 (stereo not shown) [Compound A-17]	90%	0%	100%	90%																	plant injury at 250 g/ha ([1]; 250 g/ha): 0%; plant injury at 250 g/ha ([2]; 250 g/ha): 0%; plant injury at 250 g/ha ([3]; 250 g/ha): 0%; pest or weed control at 250 g/ha ([8]; 250 g/ha application rate): 70%; pest or weed control at 250 g/ha (Setaria faberi (SETFA) [9]; 250 g/ha application rate): 80%; plant injury at 250 g/ha ([10]; 250 g/ha application rate): 10%; pest or weed control at 250 g/ha ([11]; 250 g/ha): 0%; pest or weed control at 250 g/ha (Avena fatua (AVEFA); 250 g/ha): 60%; pest or weed control at 250 g/ha (Lolium perenne (LOLPE); 250 g/ha): 50%; plant injury at 250 g/ha ([12]; 250 g/ha): 10%; plant injury at 250 g/ha ([13]; 250 g/ha application rate): 10%; plant injury at 250 g/ha ([14]; 250 g/ha application rate): 10%; plant injury at 250 g/ha ([15]; 250 g/ha application rate): 10%
CC#Cc1cc(C)c(C2C(=O)C3CCC(C3)C2=O)c(OC)c1 (stereo not shown) [Compound A-10]	100%	50%	100%	100%	0%	20%	0%	90%	100%	80%	100%	10%	20%	80%	60%	100%	0%	40%	60%	60%	plant injury at 125 g/ha [14]: 80%; plant injury at 30 g/ha [15]: 20%; plant injury at 125 g/ha [15]: 20%
CC#Cc1cc(C)c(C2=C(OC(C)=O)CC(c3ccccn3)CC2=O)c(C)c1 (stereo not shown) [Compound A-15]	100%	60%	100%	100%	80%	0%	0%	90%	100%	80%	100%	20%	60%	80%	50%	90%	10%	60%	70%	70%	pest or weed control at 30 g/ha ([4]; 30 g/ha): 90%; pest or weed control at 30 g/ha ([5]; 30 g/ha): 0%; pest or weed control at 30 g/ha ([6]; 30 g/ha): 100%; pest or weed control at 30 g/ha (Setaria faberi (SETFA) [7]; 30 g/ha): 100%; plant injury at 125 g/ha [14]: 80%; plant injury at 30 g/ha [15]: 30%; plant injury at 125 g/ha [15]: 30%
